From PMC5159191 (Nature, 2016)

Tested on: CCR2-T4L
Format: binding, human
Conditions: [3H]-INCB-3344 homologous displacement

CCO[C@H]1CN(C2CCC(O)(c3ccc4c(c3)OCO4)CC2)C[C@@H]1NC(=O)CNC(=O)c1cccc(C(F)(F)F)c1 (stereo partly shown) [INCB-3344]
improvement of affinity towards CCR2-T4L compared to WT CCR2: approximately 2 fold
